Source: patent US20030171340A1 (priority 2002, published 2003)

Columns and labels:
[1] = tested on: Pseudomonas isolate (Ps isolate, Susquehanna flats); experiment: Growth of Pseudomonas isolate in TSB in the presence of tetracycline, metal cations or tetracycline metal complexes; format: cell-based; conditions: for Ps isolate growth (S/I/+4): experiment D
Experimental: (§1) Individual components were tested for inhibition or enhancement of Pseudomonas isolated from the site.

[2] = tested on: New Ps isolate from sediment; experiment: Growth of new Ps isolate from sediment in the presence of tetracycline or tetracycline-Fe2+ complex; format: cell-based, Pseudomonas; conditions: experiment C
Experimental: as §1

Row | Molecule | Ps isolate growth ([1]; experiment A, metal cation alone, 1 mL TSB + 4 μl (4 μg/mL)) | Ps isolate growth (S/I/+4) ([1]; 1 μg/mL) | Ps isolate growth (S/I/+4) ([1]; 4 μg/mL) | Ps isolate growth (S/I/+4) ([1]; 8 μg/mL) | Ps isolate growth (S/I/+4) ([1]; metal cation alone, concentration not given) | Ps isolate growth (R/I/S) ([2]; 8 μg/mL) | Ps isolate growth (R/I/S) ([2]; 40 μg/mL) | Ps isolate growth (R/I/S) ([2]; 100 μg/mL)
1 | copper acetate [Cu^2+] | Growth | +4 | I | S (no growth) | +4 | – | – | –
2 | CN(C)[C@@H]1C(O)=C(C(N)=O)C(=O)[C@@]2(O)C(O)=C3C(=O)c4c(O)cccc4[C@@](C)(O)[C@H]3C[C@@H]12 [tetracycline] | – | – | – | – | – | R | R | R
